From patent US8002614B2, “Microbiocidal control in the processing of meat-producing four-legged animals” (priority 2005, dated 2011)

Format: physicochemical
Description: In many high output meat packing plants, space to install the biocide feeder in an easily accessible location is not readily available. The smaller area required for a BCDMH feeder system relative to a DBDMH system, is advantageous with respect to installation flexibility. For example, because of higher bromine output, a plant utilizing BCDMH may utilize a smaller number of biocide feeders than a plant utilizing DBDMH feeders. Also, because each point of application of aqueous biocide in the plant requires a certain bromine residual in a certain flow of water, the much higher output of bromine from a BCDMH feeder to achieve the desired bromine residual, requires much less water flow to the feeder for BCDMH than DBDMH. Since the source of water and the feeder are often quite distant from each other, a need for providing a new line just for the feeder is disadvantageous and expensive. But, pursuant to this invention, oftentimes excess water supplied to existing equipment near the feeder can be employed thereby eliminating the need for installation of a new special water line to the feeder. In other words, since BCDMH requires less than half the water flow of DBDMH, in many situations this water source would have sufficient flow for BCDMH while that same flow would be insufficient for DBDMH. […]

water solubility	Compound
890 ppm	CC1(C)C(=O)N(Cl)C(=O)N1Br [BCDMH, N,N′-bromochloro-5,5-dimethylhydantoin]
405 ppm	CC1(C)C(=O)N(Br)C(=O)N1Br [DBDMH, 1,3-dibromo-5,5-dimethylhydantoin]
